Experimental data published in US20230357253A1, “AGONISTS OF STIMULATOR OF INTERFERON GENES STING” (THE SCRIPPS RESEARCH INSTITUTE, priority 2020, published 2023).

Columns and labels:
human STING protein = human STING protein (Homo sapiens (Human), UniProt Q86WV6); test: WT STING binding assay (HTRF, competition with labeled 2′3′cGAMP); details: recombinant 6×His-tagged human STING, three hours at room temperature
Protocol: WT STING binding assay (Cisbio, Catalog #64BDSTGPEH). […] Upon proximity of the two dyes, the excitation of the donor by the flash lamp on the PHERAstar FSX plate reader triggers a Fluorescence Resonance Energy Transfer (FRET) towards the acceptor, which in turn fluoresces at 665 nm. To assess the ability of the synthetic small molecule STING ligands to bind to human STING, a competitive assay format was applied. A 10-point titration of each of the synthetic ligands in 5 uL were transferred into a 384 well plate, followed by 20 uL of assay buffer containing the 6×His-tagged human STING protein and labeled 2′3′cGAMP ligand and incubated for three hours at room temperature. The raw values obtained from the PHERAstar were used to calculate the reported IC50 values (the signal is inversely proportional to the binding of the synthetic ligand) through curve fitting in Genedata. The percent inhibition was calculated based upon the maximal amount of binding by synthetic compound versus the maximum binding of unlabeled 2′3′ cGAMP which was used as a control in each assay.

THP-1 Lucia ISG cells = test: ISRE-luciferase assay (ISG-LUC activation); type: cell-based; details: Homo sapiens, THP1-Lucia ISG, 24 hours, luciferase reporter
Summary of the method: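 THP-1 Lucia ISG cells at 5×10^5 cells/ml in 2% FBS medium were treated with test article or DMSO vehicle for 24 h. Secreted luciferase was read by luminescence and normalized to vehicle, reported as RLU.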

human STING protein, sequence (Q86WV6 whole entry): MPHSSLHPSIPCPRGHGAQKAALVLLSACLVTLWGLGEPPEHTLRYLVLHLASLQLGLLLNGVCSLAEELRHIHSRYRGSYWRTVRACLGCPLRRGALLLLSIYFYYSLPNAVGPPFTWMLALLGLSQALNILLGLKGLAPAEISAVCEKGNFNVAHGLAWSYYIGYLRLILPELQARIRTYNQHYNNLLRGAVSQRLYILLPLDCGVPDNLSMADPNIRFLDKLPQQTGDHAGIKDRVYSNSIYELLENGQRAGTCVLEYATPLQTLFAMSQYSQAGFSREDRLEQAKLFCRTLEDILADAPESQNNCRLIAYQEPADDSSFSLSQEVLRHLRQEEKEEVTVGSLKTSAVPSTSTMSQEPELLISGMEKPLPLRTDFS

Row | SMILES | IC50 (human STING protein) | EC50 (THP-1 Lucia ISG cells)
1 | COC(=O)c1ccc(CCCc2ccc(C(=O)O)c(NC(=O)c3ccc(-n4ccnc4)nn3)c2)cc1NC(=O)c1ccc(-n2ccnc2)nn1 [Compound 47] | 100 to 1000 nM | 500 to 5000 nM
2 | O=C(Nc1cc(CCCc2ccc(C(=O)O)c(NC(=O)c3ccc(-n4ccnc4)nn3)c2)ccc1C(=O)O)c1ccc(-n2ccnc2)nn1 [Compound 48] | 10 to 100 nM | 50 to 500 nM
3 | COc1cc(C(=O)O)c(NC(=O)c2ccc(-n3ccnc3)nn2)cc1OCCCCOc1ccc(C(=O)O)c(NC(=O)c2ccc(-n3ccnc3)nn2)c1 [Compound 49] | 100 to 1000 nM | > 5000 nM
4 | O=C(Nc1cc(OCCCCOc2cc(NC(=O)c3ccc(-n4ccnc4)nn3)c(C(=O)O)cc2Cl)c(Cl)cc1C(=O)O)c1ccc(-n2ccnc2)nn1 [Compound 50] | 100 to 1000 nM | 500 to 5000 nM
5 | O=C(Nc1cc(CCCc2cc(NC(=O)c3ccc(-n4ccnc4)nn3)c(C(=O)O)nc2Cl)c(F)cc1C(=O)O)c1ccc(-n2ccnc2)nn1 [Compound 52] | 10 to 100 nM | 50 to 500 nM
6 | O=C(Nc1cc(CCCc2ccc(NC(=O)c3ccc(-n4ccnc4)nn3)c(C(=O)O)c2)ccc1C(=O)O)c1ccc(-n2ccnc2)nn1 [Compound 55] | 10 to 100 nM | 500 to 5000 nM
7 | O=C(Nc1cc(OCCCCOc2ccc(C(=O)O)c(NC(=O)c3ccc4nnnn4n3)c2)c(F)cc1C(=O)O)c1ccc(-n2ccnc2)nn1 [Compound 57] | 10 to 100 nM | > 5000 nM
8 | COc1cc(C(=O)O)c(NC(=O)c2ccc(-n3ccnc3)nn2)cc1OCCCCOc1cc(NC(=O)c2ccc(-n3ccnc3)nn2)c(C(=O)O)cc1F [Compound 58] | 100 to 1000 nM | 500 to 5000 nM
9 | COC(=O)c1ccc(OCCCCOc2cc(NC(=O)c3ccc4nnnn4n3)c(C(=O)O)cc2F)cc1NC(=O)c1ccc(-n2ccnc2)nn1 [Compound 62] | 100 to 1000 nM | > 5000 nM
10 | O=C(Nc1cc(OCCCCOc2cnc(C(=O)O)c(NC(=O)c3ccc(-n4ccnc4)nn3)c2)c(F)cc1C(=O)O)c1ccc2nnnn2n1 [Compound 64] | 10 to 100 nM | > 5000 nM
11 | O=C(Nc1cc(CCCc2cnc(C(=O)O)c(NC(=O)c3ccc(-n4ccnc4)nn3)c2)c(F)cc1C(=O)O)c1ccc(-n2ccnc2)nn1 [Compound 65] | 10 to 100 nM | 500 to 5000 nM
12 | O=C(Nc1ccc(CCCc2cc(NC(=O)c3ccc(-n4ccnc4)nn3)c(C(=O)O)cc2F)cc1C(=O)O)c1ccc(-n2ccnc2)nn1 [Compound 71] | 10 to 100 nM | > 5000 nM
13 | O=C(Nc1cc(OCCCCOc2cc(NC(=O)c3ccc4nnnn4n3)c(C(=O)O)cc2Cl)ccc1C(=O)O)c1ccc(-n2ccnc2)nn1 [Compound 72] | 10 to 100 nM | 500 to 5000 nM
14 | O=C(Nc1cc(OCCCCOc2cc(NC(=O)c3ccc4nnnn4n3)c(C(=O)O)cc2F)ccc1C(=O)O)c1ccc(-n2ccnc2)nn1 [Compound 74] | 10 to 100 nM | > 5000 nM
15 | O=C(Nc1cc(CCCc2ccc(C(=O)O)c(NC(=O)c3ccc4nnnn4n3)c2)c(F)cc1C(=O)O)c1ccc(-n2ccnc2)nn1 [Compound 75] | 100 to 1000 nM | 500 to 5000 nM
16 | COC(=O)c1cc(F)c(CCCc2cc(NC(=O)c3ccc4nnnn4n3)c(C(=O)O)cc2F)cc1NC(=O)c1ccc(-n2ccnc2)nn1 [Compound 76] | 10 to 100 nM | 50 to 500 nM
17 | O=C(Nc1cc(CCCc2cc(NC(=O)c3ccc4nnnn4n3)c(C(=O)O)cc2Cl)ccc1C(=O)O)c1ccc(-n2ccnc2)nn1 [Compound 77] | 10 to 100 nM | 50 to 500 nM
18 | COC(=O)c1ccc(CCCc2cc(C(=O)O)c(NC(=O)c3ccc(-n4ccnc4)nn3)cc2F)cc1NC(=O)c1ccc(-n2ccnc2)nn1 [Compound 79] | 100 to 1000 nM | 50 to 500 nM
19 | COC(=O)c1nc(Cl)c(CCCc2cnc(C(=O)O)c(NC(=O)c3ccc(-n4ccnc4)nn3)c2)cc1NC(=O)c1ccc(-n2ccnc2)nn1 [Compound 80] | 10 to 100 nM | 500 to 5000 nM
20 | O=C(Nc1cc(CCCc2cnc(C(=O)O)c(NC(=O)c3ccc(-n4ccnc4)nn3)c2)c(F)cc1C(=O)O)c1ccc2nnnn2n1 [Compound 82] | 100 to 1000 nM | > 5000 nM
21 | O=C(Nc1cc(OCCCCOc2cnc(C(=O)O)c(NC(=O)c3ccc4nnnn4n3)c2)c(F)cc1C(=O)O)c1ccc(-n2ccnc2)nn1 [Compound 83] | 100 to 1000 nM | > 5000 nM

Row | SMILES | IC50 (human STING protein) | EC50 (THP-1 Lucia ISG cells)
22 | COc1cc(NC(=O)c2ccc3nnnn3n2)c(C(=O)O)cc1CCCc1ccc(C(=O)O)c(NC(=O)c2ccc(-n3ccnc3)nn2)c1 [Compound 84] | 100 to 1000 nM | 500 to 5000 nM
23 | COc1cc(C(=O)O)c(NC(=O)c2ccc3nnnn3n2)cc1CCCc1cnc(C(=O)O)c(NC(=O)c2ccc(-n3ccnc3)nn2)c1 [Compound 85] | 100 to 1000 nM | > 5000 nM
24 | COc1cc(C(=O)O)c(NC(=O)c2ccc3nnnn3n2)cc1CCCc1ccc(C(=O)O)c(NC(=O)c2ccc(-n3ccnc3)nn2)c1 [Compound 86] | 10 to 100 nM | 50 to 500 nM
25 | O=C(Nc1cc(CCCc2cc(NC(=O)c3ccc4nnnn4n3)c(C(=O)O)nc2Cl)ccc1C(=O)O)c1ccc(-n2ccnc2)nn1 [Compound 87] | 10 to 100 nM | 50 to 500 nM
26 | COC(=O)c1ccc(CCCc2cc(NC(=O)c3ccc4nnnn4n3)c(C(=O)O)cc2F)cc1NC(=O)c1ccc(-n2ccnc2)nn1 [Compound 88] | 100 to 1000 nM | 500 to 5000 nM
27 | O=C(Nc1cc(CCCc2cc(NC(=O)c3ccc4nnnn4n3)c(C(=O)O)cc2F)ccc1C(=O)O)c1ccc(-n2ccnc2)nn1 [Compound 89] | 10 to 100 nM | 50 to 500 nM
28 | COc1cc(C(=O)O)c(NC(=O)c2ccc3nnnn3n2)cc1OCCc1ccc(C(=O)O)c(NC(=O)c2ccc(-n3ccnc3)nn2)c1 [Compound 91] | 100 to 1000 nM | > 5000 nM
29 | O=C(Nc1cc(CCOc2cc(NC(=O)c3ccc4nnnn4n3)c(C(=O)O)cc2F)ccc1C(=O)O)c1ccc(-n2ccnc2)nn1 [Compound 92] | 10 to 100 nM | 50 to 500 nM
30 | O=C(Nc1cc(CCCc2cc(C(=O)O)c(NC(=O)c3ccc4nnnn4n3)cc2Cl)ccc1C(=O)O)c1ccc(-n2ccnc2)nn1 [Compound 93] | 10 to 100 nM | 50 to 500 nM
31 | COc1cc(C(=O)O)c(NC(=O)c2ccc3nnnn3n2)cc1OCCCCOc1cc(NC(=O)c2ccc(-n3ccnc3)nn2)c(C(=O)O)cc1F [Compound 95] | 10 to 100 nM | 500 to 5000 nM
32 | COc1cc(NC(=O)c2ccc3nnnn3n2)c(C(=O)O)cc1CCCc1cc(NC(=O)c2ccc(-n3ccnc3)nn2)c(C(=O)O)cc1F [Compound 96] | 10 to 100 nM | 50 to 500 nM
33 | O=C(Nc1cc(OCCc2cc(NC(=O)c3ccc4nnnn4n3)c(C(=O)O)cc2F)ccc1C(=O)O)c1ccc(-n2ccnc2)nn1 [Compound 97] | 100 to 1000 nM | 500 to 5000 nM
34 | O=C(Nc1cc(CCCCc2cc(NC(=O)c3ccc4nnnn4n3)c(C(=O)O)cc2F)c(F)cc1C(=O)O)c1ccc(-n2ccnc2)nn1 [Compound 98] | 10 to 100 nM | 50 to 500 nM
35 | COc1cc(C(=O)O)c(NC(=O)c2ccc(-n3ccnc3)nn2)cc1CCOc1cc(NC(=O)c2ccc3nnnn3n2)c(C(=O)O)cc1F [Compound 99] | 100 to 1000 nM | 500 to 5000 nM
36 | COc1cc(C(=O)O)c(NC(=O)c2ccc3nnnn3n2)cc1CCOc1cc(NC(=O)c2ccc(-n3ccnc3)nn2)c(C(=O)O)cc1F [Compound 100] | 100 to 1000 nM | 50 to 500 nM
37 | COc1cc(NC(=O)c2ccc(-n3ccnc3)nn2)c(C(=O)O)cc1CCCc1cc(NC(=O)c2ccc3nnnn3n2)c(C(=O)O)cc1F [Compound 101] | 100 to 1000 nM | 50 to 500 nM
38 | COc1cc(C(=O)O)c(NC(=O)c2ccc3nnnn3n2)cc1OCCc1cc(NC(=O)c2ccc(-n3ccnc3)nn2)c(C(=O)O)cc1F [Compound 102] | 100 to 1000 nM | 500 to 5000 nM
39 | COc1cc(NC(=O)c2ccc3nnnn3n2)c(C(=O)O)cc1CCOc1cc(NC(=O)c2ccc(-n3ccnc3)nn2)c(C(=O)O)cc1F [Compound 103] | 100 to 1000 nM | 500 to 5000 nM
40 | O=C(Nc1cc(CCOc2cc(NC(=O)c3ccc4nnnn4n3)c(C(=O)O)cc2Cl)ccc1C(=O)O)c1ccc(-n2ccnc2)nn1 [Compound 104] | 10 to 100 nM | 50 to 500 nM
41 | O=C(Nc1cc(CCCc2ccc(C(=O)O)c(NC(=O)c3ccc4nnnn4n3)c2)c(Cl)cc1C(=O)O)c1ccc(-n2ccnc2)nn1 [Compound 105] | 10 to 100 nM | 500 to 5000 nM
